In the supplement of paper PMC10733146:

What was measured:
Assay in all cases: viability relative to DMSO control (fraction); higher = less drug effect (more viable cells)
Conditions in all cases: 48 h
[1] = system: primary MCL patient cells (S041)
Summary of the method: (§1)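 Primary mononuclear tumour cells (Ficoll-isolated from blood or bone marrow, or processed lymph node; fresh or cryopreserved) were plated at 4 × 10^4 cells per well in 384-well plates with pre-plated compounds at five concentrations, one well each. Medium was RPMI-1640 with penicillin/streptomycin, L-glutamine and human serum, at 37 °C and 5% CO2 for 48 h. Viability was read as CellTiter-Glo luminescence relative to the median of 16 inner DMSO wells.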

[2] = system: primary MCL patient cells (S053)
Summary of the method: as §1

[3] = system: primary BL patient cells (S005)
Summary of the method: as §1

[4] = system: primary B-PLL patient cells (S016)
Summary of the method: as §1

[5] = system: primary AML patient cells (S071)
Summary of the method: as §1

[6] = system: primary AML patient cells (S060)
Summary of the method: as §1

[7] = system: primary MCL patient cells (S063)
Summary of the method: as §1

[8] = system: primary AML patient cells (S006)
Summary of the method: as §1

[9] = system: primary CLL patient cells (S043)
Summary of the method: as §1

[10] = system: primary AML patient cells (S079)
Summary of the method: as §1

[11] = system: primary FL patient cells (S087)
Summary of the method: as §1

[12] = system: primary AML patient cells (S012)
Summary of the method: as §1

[13] = system: primary AML patient cells (S085)
Summary of the method: as §1

[14] = system: primary AML patient cells (S072)
Summary of the method: as §1

[15] = system: primary AML patient cells (S009)
Summary of the method: as §1

[16] = system: primary AML patient cells (S056)
Summary of the method: as §1

[17] = system: primary AML patient cells (S017)
Summary of the method: as §1

[18] = system: primary ALL patient cells (S088)
Summary of the method: as §1

[19] = system: primary DLBCL patient cells (S082)
Summary of the method: as §1

[20] = system: primary CLL patient cells (S031)
Summary of the method: as §1

Structure (SMILES): CO[C@H]1C[C@@H]2CC[C@@H](C)[C@@](O)(O2)C(=O)C(=O)N2CCCC[C@H]2C(=O)O[C@H]([C@H](C)C[C@@H]2CC[C@@H](OC(=O)C(C)(CO)CO)[C@H](OC)C2)CC(=O)[C@H](C)/C=C(\C)[C@@H](O)[C@@H](OC)C(=O)[C@H](C)C[C@H](C)/C=C/C=C/C=C/1C [Temsirolimus]
- viability ([1]; 0.032 µM): 0.853
- viability ([1]; 0.16 µM): 0.829
- viability ([1]; 0.8 µM): 0.858
- viability ([1]; 4 µM): 0.848
- viability ([1]; 20 µM): 0.768
- viability ([2]; 0.032 µM): 0.884
- viability ([2]; 0.16 µM): 0.879
- viability ([2]; 0.8 µM): 0.927
- viability ([2]; 4 µM): 0.898
- viability ([2]; 20 µM): 0.755
- viability ([3]; 0.032 µM): 0.775
- viability ([3]; 0.16 µM): 0.707
- viability ([3]; 0.8 µM): 0.784
- viability ([3]; 4 µM): 0.775
- viability ([3]; 20 µM): 0.653
- viability ([4]; 0.032 µM): 0.618
- viability ([4]; 0.16 µM): 0.598
- viability ([4]; 0.8 µM): 0.653
- viability ([4]; 4 µM): 0.614
- viability ([4]; 20 µM): 0.561
- viability ([5]; 0.032 µM): 0.837
- viability ([5]; 0.16 µM): 0.761
- viability ([5]; 0.8 µM): 0.723
- viability ([5]; 4 µM): 0.646
- viability ([5]; 20 µM): 0.407
- viability ([6]; 0.032 µM): 1.05
- viability ([6]; 0.16 µM): 1.04
- viability ([6]; 0.8 µM): 1.04
- viability ([6]; 4 µM): 1.06
- viability ([6]; 20 µM): 1
- viability ([7]; 0.032 µM): 0.913
- viability ([7]; 0.16 µM): 0.892
- viability ([7]; 0.8 µM): 0.9
- viability ([7]; 4 µM): 0.946
- viability ([7]; 20 µM): 0.843
- viability ([8]; 0.032 µM): 0.824
- viability ([8]; 0.16 µM): 0.746
- viability ([8]; 0.8 µM): 0.709
- viability ([8]; 4 µM): 0.65
- viability ([8]; 20 µM): 0.415
- viability ([9]; 0.032 µM): 0.749
- viability ([9]; 0.16 µM): 0.745
- viability ([9]; 0.8 µM): 0.738
- viability ([9]; 4 µM): 0.733
- viability ([9]; 20 µM): 0.692
- viability ([10]; 0.032 µM): 0.764
- viability ([10]; 0.16 µM): 0.771
- viability ([10]; 0.8 µM): 0.768
- viability ([10]; 4 µM): 0.755
- viability ([10]; 20 µM): 0.675
- viability ([11]; 0.032 µM): 0.833
- viability ([11]; 0.16 µM): 0.813
- viability ([11]; 0.8 µM): 0.84
- viability ([11]; 4 µM): 0.82
- viability ([11]; 20 µM): 0.713
- viability ([12]; 0.032 µM): 0.814
- viability ([12]; 0.16 µM): 0.732
- viability ([12]; 0.8 µM): 0.85
- viability ([12]; 4 µM): 0.845
- viability ([12]; 20 µM): 0.702
- viability ([13]; 0.032 µM): 0.852
- viability ([13]; 0.16 µM): 0.752
- viability ([13]; 0.8 µM): 0.918
- viability ([13]; 4 µM): 0.79
- viability ([13]; 20 µM): 0.58
- viability ([14]; 0.032 µM): 0.733
- viability ([14]; 0.16 µM): 0.886
- viability ([14]; 0.8 µM): 0.704
- viability ([14]; 4 µM): 0.728
- viability ([14]; 20 µM): 0.604
- viability ([15]; 0.032 µM): 0.92
- viability ([15]; 0.16 µM): 0.774
- viability ([15]; 0.8 µM): 0.846
- viability ([15]; 4 µM): 0.769
- viability ([15]; 20 µM): 0.533
- viability ([16]; 0.032 µM): 0.606
- viability ([16]; 0.16 µM): 0.789
- viability ([16]; 0.8 µM): 0.847
- viability ([16]; 4 µM): 0.735
- viability ([16]; 20 µM): 0.425
- viability ([17]; 0.032 µM): 0.724
- viability ([17]; 0.16 µM): 0.765
- viability ([17]; 0.8 µM): 0.739
- viability ([17]; 4 µM): 0.727
- viability ([17]; 20 µM): 0.634
- viability ([18]; 0.032 µM): 0.737
- viability ([18]; 0.16 µM): 0.688
- viability ([18]; 0.8 µM): 0.693
- viability ([18]; 4 µM): 0.703
- viability ([18]; 20 µM): 0.576
- viability ([19]; 0.032 µM): 0.794
- viability ([19]; 0.16 µM): 0.759
- viability ([19]; 0.8 µM): 0.776
- viability ([19]; 4 µM): 0.804
- viability ([19]; 20 µM): 0.748
- viability ([20]; 0.032 µM): 0.795
- viability ([20]; 0.16 µM): 0.708
- viability ([20]; 0.8 µM): 0.8
- viability ([20]; 4 µM): 0.831
- viability ([20]; 20 µM): 0.701

Structure (SMILES): Nc1nc(F)nc2c1ncn2[C@@H]1O[C@H](CO)[C@@H](O)[C@@H]1O [Fludarabine]
- viability ([1]; 0.016 µM): 1.05
- viability ([1]; 0.08 µM): 1.01
- viability ([1]; 0.4 µM): 0.993
- viability ([1]; 2 µM): 0.647
- viability ([1]; 10 µM): 0.149
- viability ([2]; 0.016 µM): 1.02
- viability ([2]; 0.08 µM): 0.928
- viability ([2]; 0.4 µM): 0.638
- viability ([2]; 2 µM): 0.238
- viability ([2]; 10 µM): 0.156
- viability ([3]; 0.016 µM): 0.972
- viability ([3]; 0.08 µM): 1.18
- viability ([3]; 0.4 µM): 0.943
- viability ([3]; 2 µM): 0.905
- viability ([3]; 10 µM): 1.05
- viability ([4]; 0.016 µM): 1.08
- viability ([4]; 0.08 µM): 1.01
- viability ([4]; 0.4 µM): 0.929
- viability ([4]; 2 µM): 0.535
- viability ([4]; 10 µM): 0.0968
- viability ([5]; 0.016 µM): 0.997
- viability ([5]; 0.08 µM): 0.973
- viability ([5]; 0.4 µM): 0.491
- viability ([5]; 2 µM): 0.195
- viability ([5]; 10 µM): 0.135
- viability ([6]; 0.016 µM): 1.02
- viability ([6]; 0.08 µM): 1.01
- viability ([6]; 0.4 µM): 1.06
- viability ([6]; 2 µM): 1.03
- viability ([6]; 10 µM): 0.89
- viability ([7]; 0.016 µM): 1.03
- viability ([7]; 0.08 µM): 1
- viability ([7]; 0.4 µM): 0.983
- viability ([7]; 2 µM): 0.845
- viability ([7]; 10 µM): 0.196
- viability ([8]; 0.016 µM): 1.02
- viability ([8]; 0.08 µM): 0.929
- viability ([8]; 0.4 µM): 0.529
- viability ([8]; 2 µM): 0.115
- viability ([8]; 10 µM): 0.0573
- viability ([9]; 0.016 µM): 1.02
- viability ([9]; 0.08 µM): 0.982
- viability ([9]; 0.4 µM): 0.882
- viability ([9]; 2 µM): 0.614
- viability ([9]; 10 µM): 0.236
- viability ([10]; 0.016 µM): 1.05
- viability ([10]; 0.08 µM): 1.01
- viability ([10]; 0.4 µM): 0.819
- viability ([10]; 2 µM): 0.453
- viability ([10]; 10 µM): 0.191
- viability ([11]; 0.016 µM): 1
- viability ([11]; 0.08 µM): 0.979
- viability ([11]; 0.4 µM): 0.871
- viability ([11]; 2 µM): 0.661
- viability ([11]; 10 µM): 0.463
- viability ([12]; 0.016 µM): 1.02
- viability ([12]; 0.08 µM): 0.979
- viability ([12]; 0.4 µM): 0.987
- viability ([12]; 2 µM): 0.921
- viability ([12]; 10 µM): 0.753
- viability ([13]; 0.016 µM): 1.02
- viability ([13]; 0.08 µM): 1.05
- viability ([13]; 0.4 µM): 0.561
- viability ([13]; 2 µM): 0.172
- viability ([13]; 10 µM): 0.112
- viability ([14]; 0.016 µM): 1.02
- viability ([14]; 0.08 µM): 1.08
- viability ([14]; 0.4 µM): 0.824
- viability ([14]; 2 µM): 0.724
- viability ([14]; 10 µM): 0.529
- viability ([15]; 0.016 µM): 0.952
- viability ([15]; 0.08 µM): 0.86
- viability ([15]; 0.4 µM): 0.59
- viability ([15]; 2 µM): 0.402
- viability ([15]; 10 µM): 0.359
- viability ([16]; 0.016 µM): 1.3
- viability ([16]; 0.08 µM): 0.88
- viability ([16]; 0.4 µM): 0.725
- viability ([16]; 2 µM): 0.208
- viability ([16]; 10 µM): 0.0833
- viability ([17]; 0.016 µM): 1.05
- viability ([17]; 0.08 µM): 1.03
- viability ([17]; 0.4 µM): 1.07
- viability ([17]; 2 µM): 0.854
- viability ([17]; 10 µM): 0.534
- viability ([18]; 0.016 µM): 1
- viability ([18]; 0.08 µM): 0.975
- viability ([18]; 0.4 µM): 0.715
- viability ([18]; 2 µM): 0.283
- viability ([18]; 10 µM): 0.2
- viability ([19]; 0.016 µM): 1.03
- viability ([19]; 0.08 µM): 0.94
- viability ([19]; 0.4 µM): 0.908
- viability ([19]; 2 µM): 0.588
- viability ([19]; 10 µM): 0.429
- viability ([20]; 0.016 µM): 1.05
- viability ([20]; 0.08 µM): 1.02
- viability ([20]; 0.4 µM): 0.779
- viability ([20]; 2 µM): 0.276
- viability ([20]; 10 µM): 0.0672
